Measurements: publication PMC11673488, “Enzyme Inhibitory, Physicochemical, and Phytochemical Properties and Botanical Sources of Honey, Bee Pollen, Bee Bread, and Propolis Obtained from the Same Apiary” (Antioxidants, 2024)
Structures can show the parent of a compound that is named as a salt.

Columns and labels:
Type in all cases: biochemical
[1] = system: T1, adenosine deaminase (ADA); assay: ADA assay (Blum and Schwedt); conditions: inhibitor in […] ethanol; unreliable (extrapolated beyond highest tested […])
T1 construct: method of Blum and Schwedt
Source text: ADA assay (Blum and Schwedt) on adenosine deaminase (ADA)

lipase = target: T2, lipase; assay: p-nitrophenyl caprate hydrolysis; conditions: substrate p-nitrophenyl caprate; inhibitor in […] ethanol
T2 construct: gene PNLIP; p-nitrophenyl caprate assay
Source text: p-nitrophenyl caprate hydrolysis on lipase

neuraminidase = target: T3, neuraminidase; assay: neuraminidase assay (Myers et al.); conditions: inhibitor in […] ethanol
T3 construct: gene nanI; method of Myers et al
Source text: neuraminidase assay (Myers et al.) on neuraminidase

CCCCCC[C@H]([C@H](C)O)n1cnc2c(N)ncnc21 [EHNA.HCl]
Adenosine Deaminase / IC50 (mg/mL) * [1]: 0.61 ± 0.05 mg/mL

CCCCCCCCCCC[C@@H](C[C@@H]1OC(=O)[C@H]1CCCCCC)OC(=O)[C@H](CC(C)C)NC=O [Orlistat]
Lipase / IC50 (mg/mL) * (lipase): 0.00245 ± 0.00010 mg/mL

O=c1c(O)c(-c2ccc(O)c(O)c2)oc2cc(O)cc(O)c12 [Quercetin dihydrate]
Neuraminidase / IC50 (mg/mL) * (neuraminidase): 0.00035 ± 0.00005 mg/mL
